{"source": "patent US20050064507A1", "about": "“Determining kinase specificity” (priority 2003, published 2005)", "key": {"pPKC antibody": {"system": "pPKC antibody", "settings": "cited from earlier work"}, "pPKC Ab": {"system": "pPKC Ab", "assay": "pPKC Ab binding to peptides phosphorylated in vitro by PKC-theta", "settings": "for pPKC Ab binding to peptide: before/after phosphorylation by PKC-theta", "protocol": "Synthetic peptides chosen from those shown in Table 4 were subjected to phosphorylation by PKC-theta, Assay conditions were similar to those described herein, except that the phosphorylation reaction was for 30 minutes at 30° C. and then overnight at 4° C. The reaction mixture was applied to HB avidin-coated plates, the plates washed, and then pPKC Ab binding assayed."}, "PKC-theta": {"target": "T1, PKC-theta (Homo sapiens, UniProt Q04759)", "T1 construct": "His-tag; made in house; host or cells: baculovirus-infected Sf9 cells", "T1 sequence (Q04759 whole entry)": "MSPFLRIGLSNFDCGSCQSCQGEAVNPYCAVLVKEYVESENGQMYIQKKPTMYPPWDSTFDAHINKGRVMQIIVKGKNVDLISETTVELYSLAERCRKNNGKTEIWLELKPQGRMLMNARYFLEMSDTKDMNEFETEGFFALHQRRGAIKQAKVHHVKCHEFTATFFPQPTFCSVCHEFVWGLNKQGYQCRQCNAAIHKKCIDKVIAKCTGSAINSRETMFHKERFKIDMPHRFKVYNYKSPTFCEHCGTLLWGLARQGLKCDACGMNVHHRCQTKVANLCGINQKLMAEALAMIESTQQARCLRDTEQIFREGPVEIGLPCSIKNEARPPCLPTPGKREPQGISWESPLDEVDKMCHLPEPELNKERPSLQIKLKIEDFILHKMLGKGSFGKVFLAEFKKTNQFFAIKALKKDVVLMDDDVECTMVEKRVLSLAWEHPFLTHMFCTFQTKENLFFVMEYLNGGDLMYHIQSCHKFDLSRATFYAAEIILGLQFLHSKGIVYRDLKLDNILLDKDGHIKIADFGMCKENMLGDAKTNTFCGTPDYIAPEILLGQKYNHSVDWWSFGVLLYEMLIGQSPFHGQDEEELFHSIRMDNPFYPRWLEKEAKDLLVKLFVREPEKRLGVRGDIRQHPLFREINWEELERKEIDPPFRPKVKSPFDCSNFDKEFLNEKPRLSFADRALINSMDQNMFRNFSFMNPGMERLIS", "assay": "In vitro kinase assay: peptide phosphorylation by PKC-theta", "format": "biochemical", "settings": "Table 8", "text": "A second strategy for validation of the PSSM derived from the methods described herein is to identify sequences represented in the human proteome that have low percentiles derived from the PSSM, to synthesize peptides that have those sequences, and test the efficiency of phosphorylation of those peptides by the kinase of interest. […] The results are shown for individual peptides (FIG. 11, panel A) or for groups of peptides aggregated by percentile prediction (FIG. 11, panel B). As with the testing described above with prospectively chosen peptides, the percentile scores are highly predictive of phosphorylation by the relevant kinase.\nAn example of the purification procedure used for production of active kinase is as follows. A preparation of PKC-theta was prepared using a Gateway expression construct containing PKC-theta that was expressed in baculovirus, which were used to infect Sf9 cells. The cell pellet from a liter of baculovirus-infected Sf9 cells was resuspended in 20 volumes (60 ml) of extraction buffer (20 mM Na phosphate buffer pH 7.5, 500 mM NaCl, 5 mM pyrophosphate, 10% glycerol, 10 mM imidazole, 1 mM PMSF), sonicated twice for one minute (1 cm tip at 60% power and 50% duty cycle) and cell disruption was verified microscopically. The sample was adjusted to five mM MgCl2 and treated with one U benzonase/ml for an additional 20 minute on ice. The sample was clarified by centrifugation in a JA-20 rotor at 15K for 30 min at 4° C., filtered through a […] filter and applied at 0.5 ml/min to a one ml chelating sepharose column previously charged with nickel and equilibrated with extraction buffer. The column was washed with extraction buffer at one ml/min to baseline and eluted in a 20 ml gradient (20-500 mM imidazole in extraction buffer) into one ml fractions that were analyzed by SDS-PAGE. Fractions with the highest concentration of protein were pooled, were dialyzed twice against one liter of 20 mM Na PO4 pH 7.5, 50 mM NaCl buffer. The kinase pool was dialyzed twice against 20 mM HEPES pH 7.4, 100 mM NaCl, 2 mM EDTA, 5 mM DTT, 0.05% Triton-X-100. After dialysis, the sample was adjusted to 50% glycerol and quick-frozen in a dry ice/ethanol bath.\n(§1) The conditions of the kinase assay and the amount of active kinase used varied with the kinase and with the accuracy needed. For a typical experiment, 5-20 ng of kinase was used per well and each peptide pool was assayed in duplicate wells. Note that the absolute amount of kinase used was not usually a critical parameter, because the desired information related to specificity of the kinase not its absolute activity, and robustness of the assay depends on comparisons of the same amount of kinase on different peptides. The combination of kinase concentration and assay duration was modified to assure that the stoichiometry of peptide phosphorylation never exceeded 5%. The choice of kinase buffer depended on the kinase being analyzed. For studies of PKC, 100 mM HEPES, 0.05% Triton-X100, 1 mM CaCl2, 20 mM MgCl2, 0.2 mg/ml phosphatidyl serine (Avanti Polar Lipids), PMA 100 ng/ml was typically used. The lipid stock was prepared by transferring 3 mg phosphatidyl serine into iced mixture of 450 μl water plus 50 μl of 10% Triton-X100, sonicating 10 times on ice for 1 sec each.\nThe kinase reaction mixture was assembled by sequential addition to a tube held on ice of: 5 μl peptide (100 μM for final concentration of 10 μM), 15 μl of kinase (typically 5 ng/well, in appropriate kinase buffer), 30 μl of ATP (1 uCi/well of ^32P-gamma ATP in a stock of 167 μM cold ATP in the kinase buffer; for final concentration for 100 μM ATP). The mixture was rapidly warmed to desired reaction temperature (30° C. for PKC) and incubated for the desired duration (usually 10 minutes). The kinase assay was terminated by transfer to 4° C. water batch, and rapid addition of an equal volume (50 μl) of stop solution [0.1M ATP+0.1M EDTA in water, pH 8]. […]"}, "PKC-delta": {"target": "T2, PKC-delta (Homo sapiens, UniProt Q05655)", "T2 construct": "purchased Calbiochem", "T2 sequence (Q05655 whole entry)": "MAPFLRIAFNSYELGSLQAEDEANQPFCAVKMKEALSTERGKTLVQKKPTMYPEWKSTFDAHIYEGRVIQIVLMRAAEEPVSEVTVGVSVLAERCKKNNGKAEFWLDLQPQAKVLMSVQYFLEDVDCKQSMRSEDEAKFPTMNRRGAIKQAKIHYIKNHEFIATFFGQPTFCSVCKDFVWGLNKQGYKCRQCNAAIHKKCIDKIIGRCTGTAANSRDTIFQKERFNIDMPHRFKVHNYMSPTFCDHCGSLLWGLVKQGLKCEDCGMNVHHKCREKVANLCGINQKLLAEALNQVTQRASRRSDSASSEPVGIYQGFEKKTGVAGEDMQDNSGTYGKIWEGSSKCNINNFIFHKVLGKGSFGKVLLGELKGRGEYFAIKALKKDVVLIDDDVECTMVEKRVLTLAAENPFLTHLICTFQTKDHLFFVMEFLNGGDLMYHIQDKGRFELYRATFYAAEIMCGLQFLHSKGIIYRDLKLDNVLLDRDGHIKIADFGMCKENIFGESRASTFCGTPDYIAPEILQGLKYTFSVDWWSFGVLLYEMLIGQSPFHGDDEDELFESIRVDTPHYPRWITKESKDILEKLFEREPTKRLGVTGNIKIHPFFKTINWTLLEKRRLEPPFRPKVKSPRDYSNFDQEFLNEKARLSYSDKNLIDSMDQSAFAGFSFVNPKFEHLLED", "assay": "In vitro kinase assay: peptide phosphorylation by PKC-delta", "format": "biochemical", "settings": "peptide concentration of 10 nM; percentage of phosphorylation of the best validating peptide substrate", "text": "One approach to validating a substrate identification method can involve, for example, comparison of substrate sites predicted by the method with in vitro phosphorylation results obtained using the selected kinase and peptides of known sequences. Such a systematic validation has been performed for the methods described herein. For example, a panel of seventy five peptides was synthesized, the phosphorylation observed for each peptide was experimentally measured, the amount of phosphorylation was quantified, the phosphorylation results for each peptide were normalized to the phosphorylation observed with the best substrate tested and these amounts were compared with predictions made according to the invention and according to the procedures provided by others. These peptides are referred to herein as proteomic peptides because their sequences are chosen from proteins in the human proteome; unlike the test sets employed herein, these peptides include no degenerate positions\nTable 2 compares the present predictions with actual measurements of phosphorylation on validating peptides. The method of synthesis of the validating peptides was as described elsewhere in the application, and each included an N-terminal linker sequence of biotinylated-Lys-dansylated-Lys-Pro-Pro-Gly (SEQ ID NO:231). The length of the remaining “core” of the validating peptides ranged from 12-21 residues with one to five S/T residues. In vitro phosphorylation of these validating peptides was measured in the manner described herein. […] In vitro phosphorylation results for the validating peptides were expressed as normalized values, namely as a percentage of phosphorylation of the best validating peptide substrate in the group.\nas §1\nThe kinase reaction mixture was assembled by sequential addition to a tube held on ice of: 5 μl peptide (100 μM for final concentration of 10 μM), 15 μl of kinase (typically 5 ng/well, in appropriate kinase buffer), 30 μl of ATP (1 uCi/well of ^32P-gamma ATP in a stock of 167 μM cold ATP in the kinase buffer; for final concentration for 100 μM ATP). The mixture was rapidly warmed to desired reaction temperature (30° C. for PKC) and incubated for the desired duration (usually 10 minutes). The kinase assay was terminated by transfer to 4° C. water batch, and rapid addition of an equal volume (50 μl) of stop solution [0.1M ATP+0.1M EDTA in water, pH 8].\nThe peptides were then captured from the reaction mixture by transfer to a Reacti-Bind Streptavidin High Binding Capacity Coated Plates (HBC) (Pierce Biotechnology) as follows. The HBC plates were pre-rinsed three times with PBS/Tween PBS/Tween20 0.05% (PBS/Tween). […]"}}, "note": "Square brackets hold non-standard residues; d marks the D form. Ends that are not written are not given here. pS = N[C@@H](COP(=O)(O)O)C(=O)O", "data": [{"substance": "229 (WKN[pS]IRH) [compound 229]", "values": [{"measurement": "binding of pPKC antibody (manufacturer Cell Signaling Technology)", "setting": "pPKC antibody", "result": "binds"}]}, {"substance": "LRRRSLRRSNSISKSPGP [SEQ ID NO 121]", "values": [{"measurement": "pPKC Ab binding to peptide", "setting": "pPKC Ab", "result": "after phosphorylation but not before"}]}, {"substance": "230 (RRP[pS]YRK) [compound 230]", "values": [{"measurement": "binding of pPKC antibody (manufacturer Cell Signaling Technology)", "setting": "pPKC antibody", "result": "binds"}]}, {"substance": "75 (EEAEHKATKARLADK) [compound 75]", "values": [{"measurement": "pPKC Ab Signal on peptide without exposure to PKC-theta", "setting": "pPKC Ab", "result": 0.02}, {"measurement": "pPKC Ab Signal on peptide after exposure to PKC-theta phosphorylation", "setting": "pPKC Ab; 30 minutes at 30° C. then overnight at 4° C.", "result": 0.02}, {"measurement": "pPKC Ab Signal amount dependent on PKC phosphorylation", "setting": "pPKC Ab; difference after minus without exposure", "result": 0.00}, {"measurement": "Peptide phosphorylation by PKC-theta", "setting": "PKC-theta", "result": 0}, {"measurement": "Measured in vitro phosphorylation by PKC-delta", "setting": "PKC-delta", "result": 0, "unit": "%"}]}, {"substance": "HVRRRRGTFKRSKLRARD [SEQ ID NO 1]", "values": [{"measurement": "pPKC Ab binding to peptide", "setting": "pPKC Ab", "result": "after phosphorylation but not before"}]}]}
